Assay results from patent publication US10897901B2, “Herbicidal composition” (FMC Corporation, priority 2007, dated 2021).

Assays:
Format in all cases: in vivo
[1] = system: Chickweed (Stellaria media); test: Example 4 post-emergence greenhouse pot test, chickweed
Procedure: (§1) Test compositions containing sulfentrazone (75 DF formulation), quniclorac, (DRIVE® 75 DF Herbicide) or mixtures of sulfentrazone and quinclorac at ratios of 1:1 to 1:5, were diluted with water to provide the appropriate test rate concentrations. A nonionic surfactant (0.25%) was added to each test solution. The test weeds include crabgrass (Digitaria sp), Chickweed (Stellaria media), Hemp Sesbania (Sesbania exaltata), Kochia (Kochia scoparia), Ivyleaf Morningglory (Ipomoea hederacea), Redroot Pigweed (Amaranthus retroflexus) and yellow nutsedge (Cyperus esculentusi).
(§2) For post-emergence testing, three disposable 3 inch square pots for each rate of application of each herbicide were filled with a soil, comprised of peat moss, vermiculite, bark ash, pine bark, limestone and a wetting agent, to which 8 to 10 seeds were planted. The pots were placed in a greenhouse and watered daily, thus allowing the seeds to germinate and the foliage to develop for 22 days, 3 months for Kochia.
(§3) Pots designated for treatment were placed on a conveyor belt and the conveyor belt fed under a spray nozzle mounted about ten inches above the foliage. The spray of herbicidal solution was commenced and once stabilized; the pots were passed under the spray at a speed to receive a coverage equivalent of 30 gallons per acre. The application rates are those shown in Table 4 below for the individual herbicidal solutions and the mixture of sulfentrazone and quinclorac. The post-emergence pots were immediately placed in the green-house and not watered until 24 hours after treatment with the test solution. Thereafter they were regularly watered at ground level. The control of weeds was evaluated in each experimental test from 2 to 20 days after treatment (DAT). The results, shown as an average of the replications, were compared with results observed in untreated control pots in the same tests.
(§4) Percent control was determined by a method similar to the 0 to 100 rating system disclosed in “Research Methods in Weed Science,” 2nd ed., B. Truelove, Ed.; Southern Weed Science Society; Auburn University, Auburn, Ala., 1977.

[2] = system: White Clover (Trifolium repens); test: Example 2 post-emergent turf plot test, clover
Procedure: (§5) The experimental design used randomized plots with post-emergent treatment and three replications per test trial. The size of each experimental plot was 4 feet by 6 feet. The application of each test composition was performed with pressurized back-pack sprayers, calibrated to spray 200 gallons per acre. Test compositions containing sulfentrazone (DISMISS™ Turf Herbicide), quinclorac, (FACET® 75 DF herbicide) or a mixture of sulfentrazone and quinclorac in a one to three ratio, prepared as described above, were diluted with water to provide the appropriate test rate concentrations.
(§6) The control of weeds was evaluated in each experimental plot from 1 to 27 days after treatment (DAT) of each test rate. The results, shown as an average of the replications, were compared with results observed in untreated control plots in the same trials.

[3] = system: Hemp Sesbania (Sesbania exaltata); test: Example 4 post-emergence greenhouse pot test, hemp sesbania
Procedure: as §1, §2, §3, §4

[4] = system: Field Violet (Viola arvensis); test: Example 1 post-emergent turf plot test, violet
Procedure: as §5, with “quniclorac,” for “quinclorac,”, “1:3” for “one to three”
(§7) The control of weeds was evaluated in each experimental plot from 7 to 41 days after treatment (DAT) of each test rate. The results, shown as an average of the replications, were compared with results observed in untreated control plots in the same trials.

[5] = system: Smooth Crabgrass (Digitaria ischaemum); test: Example 2 post-emergent turf plot test, tillered crabgrass
Procedure: as §5, §6

[6] = system: Blackseed Plantain (Plantago rugelii); test: Example 1 post-emergent turf plot test, plantain
Procedure: as §5, with “quniclorac,” for “quinclorac,”, “1:3” for “one to three”
as §7

crabgrass (Digitaria sp) = test: Example 4 post-emergence greenhouse pot test, crabgrass
Procedure: as §1, §2, §3, §4

## Cc1nn(-c2cc(NS(C)(=O)=O)c(Cl)cc2Cl)c(=O)n1C(F)F [A, N-[2,4-dichloro-5-[4-(difluoromethyl)-4,5-dihydro-3-methyl-5-oxo-1H-1,2,4-triazol-1-yl]phenyl]methanesulfonamide]
[1]; 0.25 lb ai/acre, 2 DAT
  Percent Control: 30%
[1]; 0.25 lb ai/acre, 7 DAT
  Percent Control: 30%
[1]; 0.25 lb ai/acre, 14 DAT
  Percent Control: 10%
[1]; 0.25 lb ai/acre, 20 DAT
  Percent Control: 0%
[2]; 0.57 lb ai/acre, 7 DAT
  Percent Control: 45%
[2]; 0.57 lb ai/acre, 14 DAT
  Percent Control: 74%
[2]; 0.57 lb ai/acre, 21 DAT
  Percent Control: 68%
[3]; 0.25 lb ai/acre, 2 DAT
  Percent Control: 70%
[3]; 0.25 lb ai/acre, 7 DAT
  Percent Control: 85%
[3]; 0.25 lb ai/acre, 14 DAT
  Percent Control: 90%
[3]; 0.25 lb ai/acre, 20 DAT
  Percent Control: 90%
[4]; 0.57 lb ai/acre, 7 DAT
  Percent Control: 64%
[4]; 0.57 lb ai/acre, 14 DAT
  Percent Control: 75%
[4]; 0.57 lb ai/acre, 21 DAT
  Percent Control: 76%
[4]; 0.57 lb ai/acre, 28 DAT
  Percent Control: 70%
[4]; 0.57 lb ai/acre, 41 DAT
  Percent Control: 75%
[5]; 0.57 lb ai/acre, 7 DAT
  Percent Control: 34%
[5]; 0.57 lb ai/acre, 14 DAT
  Percent Control: 36%
[5]; 0.57 lb ai/acre, 21 DAT
  Percent Control: 52%
[6]; 0.57 lb ai/acre, 7 DAT
  Percent Control: 83%
[6]; 0.57 lb ai/acre, 14 DAT
  Percent Control: 88%
[6]; 0.57 lb ai/acre, 21 DAT
  Percent Control: 100%
[6]; 0.57 lb ai/acre, 28 DAT
  Percent Control: 100%
Crabgrass (Digitaria sp); 0.25 lb ai/acre, 2 DAT
  Percent Control: 10%
Crabgrass (Digitaria sp); 0.25 lb ai/acre, 7 DAT
  Percent Control: 10%
Crabgrass (Digitaria sp); 0.25 lb ai/acre, 14 DAT
  Percent Control: 5%
Crabgrass (Digitaria sp); 0.25 lb ai/acre, 20 DAT
  Percent Control: 5%

## O=C(O)c1c(Cl)ccc2cc(Cl)cnc12 [B, 3,7-dichloro-8-quinolinecarboxylic acid]
[1]; 0.25 lb ai/acre, 2 DAT
  Percent Control: 0%
[1]; 0.25 lb ai/acre, 7 DAT
  Percent Control: 0%
[1]; 0.25 lb ai/acre, 14 DAT
  Percent Control: 0%
[1]; 0.25 lb ai/acre, 20 DAT
  Percent Control: 0%
[1]; 0.5 lb ai/acre, 2 DAT
  Percent Control: 0%
[1]; 0.5 lb ai/acre, 7 DAT
  Percent Control: 0%
[1]; 0.5 lb ai/acre, 14 DAT
  Percent Control: 0%
[1]; 0.5 lb ai/acre, 20 DAT
  Percent Control: 0%
[1]; 0.75 lb ai/acre, 2 DAT
  Percent Control: 0%
[1]; 0.75 lb ai/acre, 7 DAT
  Percent Control: 0%
[1]; 0.75 lb ai/acre, 14 DAT
  Percent Control: 0%
[1]; 0.75 lb ai/acre, 20 DAT
  Percent Control: 0%
[1]; 1.0 lb ai/acre, 2 DAT
  Percent Control: 0%
[1]; 1.0 lb ai/acre, 7 DAT
  Percent Control: 5%
[1]; 1.0 lb ai/acre, 14 DAT
  Percent Control: 5%
[1]; 1.0 lb ai/acre, 20 DAT
  Percent Control: 5%
[1]; 1.25 lb ai/acre, 2 DAT
  Percent Control: 5%
[1]; 1.25 lb ai/acre, 7 DAT
  Percent Control: 5%
[1]; 1.25 lb ai/acre, 14 DAT
  Percent Control: 2%
[1]; 1.25 lb ai/acre, 20 DAT
  Percent Control: 5%
[2]; 0.75 lb ai/acre, 7 DAT
  Percent Control: 60%
[2]; 0.75 lb ai/acre, 14 DAT
  Percent Control: 87%
[2]; 0.75 lb ai/acre, 21 DAT
  Percent Control: 82%
[3]; 0.25 lb ai/acre, 2 DAT
  Percent Control: 0%
[3]; 0.25 lb ai/acre, 7 DAT
  Percent Control: 0%
[3]; 0.25 lb ai/acre, 14 DAT
  Percent Control: 5%
[3]; 0.25 lb ai/acre, 20 DAT
  Percent Control: 20%
[3]; 0.5 lb ai/acre, 2 DAT
  Percent Control: 0%
[3]; 0.5 lb ai/acre, 7 DAT
  Percent Control: 10%
[3]; 0.5 lb ai/acre, 14 DAT
  Percent Control: 20%
[3]; 0.5 lb ai/acre, 20 DAT
  Percent Control: 60%
[3]; 0.75 lb ai/acre, 2 DAT
  Percent Control: 0%
[3]; 0.75 lb ai/acre, 7 DAT
  Percent Control: 0%
[3]; 0.75 lb ai/acre, 14 DAT
  Percent Control: 10%
[3]; 0.75 lb ai/acre, 20 DAT
  Percent Control: 60%
[3]; 1.0 lb ai/acre, 2 DAT
  Percent Control: 10%
[3]; 1.0 lb ai/acre, 7 DAT
  Percent Control: 10%
[3]; 1.0 lb ai/acre, 14 DAT
  Percent Control: 20%
[3]; 1.0 lb ai/acre, 20 DAT
  Percent Control: 60%
[3]; 1.25 lb ai/acre, 2 DAT
  Percent Control: 0%
[3]; 1.25 lb ai/acre, 7 DAT
  Percent Control: 0%
[3]; 1.25 lb ai/acre, 14 DAT
  Percent Control: 10%
[3]; 1.25 lb ai/acre, 20 DAT
  Percent Control: 50%
[4]; 0.75 lb ai/acre, 7 DAT
  Percent Control: 43%
[4]; 0.75 lb ai/acre, 14 DAT
  Percent Control: 46%
[4]; 0.75 lb ai/acre, 21 DAT
  Percent Control: 43%
[4]; 0.75 lb ai/acre, 28 DAT
  Percent Control: 41%
[4]; 0.75 lb ai/acre, 41 DAT
  Percent Control: 37%
[5]; 0.75 lb ai/acre, 7 DAT
  Percent Control: 54%
[5]; 0.75 lb ai/acre, 14 DAT
  Percent Control: 66%
[5]; 0.75 lb ai/acre, 21 DAT
  Percent Control: 67%
[6]; 0.75 lb ai/acre, 7 DAT
  Percent Control: 100%
[6]; 0.75 lb ai/acre, 14 DAT
  Percent Control: 100%
[6]; 0.75 lb ai/acre, 21 DAT
  Percent Control: 100%
[6]; 0.75 lb ai/acre, 28 DAT
  Percent Control: 100%
Crabgrass (Digitaria sp); 0.25 lb ai/acre, 2 DAT
  Percent Control: 10%
Crabgrass (Digitaria sp); 0.25 lb ai/acre, 7 DAT
  Percent Control: 20%
Crabgrass (Digitaria sp); 0.25 lb ai/acre, 14 DAT
  Percent Control: 20%
Crabgrass (Digitaria sp); 0.25 lb ai/acre, 20 DAT
  Percent Control: 10%
Crabgrass (Digitaria sp); 0.5 lb ai/acre, 2 DAT
  Percent Control: 0%
Crabgrass (Digitaria sp); 0.5 lb ai/acre, 7 DAT
  Percent Control: 10%
Crabgrass (Digitaria sp); 0.5 lb ai/acre, 14 DAT
  Percent Control: 60%
Crabgrass (Digitaria sp); 0.5 lb ai/acre, 20 DAT
  Percent Control: 50%
Crabgrass (Digitaria sp); 0.75 lb ai/acre, 2 DAT
  Percent Control: 0%
Crabgrass (Digitaria sp); 0.75 lb ai/acre, 7 DAT
  Percent Control: 0%
Crabgrass (Digitaria sp); 0.75 lb ai/acre, 14 DAT
  Percent Control: 60%
Crabgrass (Digitaria sp); 0.75 lb ai/acre, 20 DAT
  Percent Control: 50%
Crabgrass (Digitaria sp); 1.0 lb ai/acre, 2 DAT
  Percent Control: 0%
Crabgrass (Digitaria sp); 1.0 lb ai/acre, 7 DAT
  Percent Control: 10%
Crabgrass (Digitaria sp); 1.0 lb ai/acre, 14 DAT
  Percent Control: 60%
Crabgrass (Digitaria sp); 1.0 lb ai/acre, 20 DAT
  Percent Control: 70%
Crabgrass (Digitaria sp); 1.25 lb ai/acre, 2 DAT
  Percent Control: 0%
Crabgrass (Digitaria sp); 1.25 lb ai/acre, 7 DAT
  Percent Control: 10%
Crabgrass (Digitaria sp); 1.25 lb ai/acre, 14 DAT
  Percent Control: 60%
Crabgrass (Digitaria sp); 1.25 lb ai/acre, 20 DAT
  Percent Control: 70%
